# Test results reported in patent US20230277569A1, “Compositions and Methods for Treating, Ameliorating and/or Preventing Cancer and Kits for the Same” (priority 2022, published 2023).
# Entries after “also recorded” stand apart in the source; their conditions may differ. Read-outs that look alike come from different tables or passages of the source.
# Assays:
# [1] = Plasma protein binding (rapid equilibrium dialysis); format: in vitro ADME, human; details: human, plasma, 4-h incubation, 37° C.
# Description: (§5) Spiked plasma samples were prepared by adding 12 μL of each working solution into 1.2 mL of blank plasma to a final concentration of 2 μg/mL. Plasma protein binding incubations were performed in triplicate by adding 500 μL of PBS into each white chamber and 300 μL of spiked plasma into each red chamber of the RED device. The device was covered with a sealing tape and placed on an orbital shaker at a shaking speed of 100 rpm at 37° C. in 5% CO2. After a 4-h incubation, a 40 μL plasma sample was transferred from each red chamber to the wells of a 96-well plate containing 160 μL of PBS. A 160 μL PBS aliquot from each white chamber was transferred to the wells of the same plate containing 40 μL of blank plasma. After matching the matrix for all samples, 400 μL aliquots of stop solution were added to each well of the 96-well sample plate. […] A 100 μL aliquot of supernatant from each well was transferred to a new 96-well sample plate and further mixed with 100 μL of Milli-Q (ultrapure) water before analysis by liquid chromatography—tandem mass spectrometry (LC-MS/MS).
# plasma proteins = test: as above; format: in vitro ADME, human; details: 2 μg/mL, 4-h incubation, 37° C.
# Description: as §5
# in vitro = details: human
# Description: (§1) Caco2 cells (2×10^4/well) were seeded onto apical chambers of a 24-multiwell insert plate and incubated at 37° C. in 5% CO2. After 21 d, the transepithelial electrical resistance (TEER) in ohms was read for each insert well as a quality control for monolayer integrity (>900 ohms or 300 ohms cm^2). The cell monolayers were incubated with 400 μL transport buffer on the apical (A) and 1.2 mL on the basolateral (B) sides for 30 min. After preincubation, dosing solution was added to the apical (400 μL, A-to-B, donor) or basolateral sides (1.2 mL, B-to-A, donor) or receiving buffer to the apical (400 μL, B-to-A, receiver) or basolateral sides (1.2 mL, A-to-B, receiver) for 90 min at 37° C. in 5% CO2. […] Papp·A>B (nm/s) was calculated with Equation 1.
# (§2) Papp Efflux Ratio (ER) was calculated with Equation 2.
# (§3) Propranolol (high permeability marker, non-P-gp substate) and digoxin (P-gp substrate) were used as controls.
# [2] = system: Caco2 intestinal cell monolayer; test: in vitro; details: human, Caco-2, 90 min
# Description: as §1, §2, §3
# CYP2A6 = CYP2A6 (Homo sapiens, UniProt P11509); test: CYP inhibition in liver microsomes, CYP2A6; format: in vitro ADME; details: human liver microsomes 0.1 mg/mL
# Description: (§6) After addition of prototypical CYP substrates in 250 μL, samples were incubated for 10 min (CYP1A2, CYP2B6, CYP2C9, and CYP3A4) or 20 min (CYP2C8) at 37° C. in 5% CO2. […] Samples were analyzed for metabolite formation by LC-MS/MS. The results were expressed using the peak area ratio of analyte to internal standard, based on the calibration curves.
# (§7) where Range=fitted uninhibited value, s=slope factor, x=inhibitor concentration, y=% control activity.
# CYP3A4 = CYP3A4 (Homo sapiens, UniProt P08684); test: CYP inhibition in liver microsomes, CYP3A4; format: in vitro ADME; details: human liver microsomes 0.1 mg/mL
# Description: as §6, §7
# Nav1.5 = Nav1.5 (Homo sapiens, UniProt Q14524); test: Ion channel screening, Nav1.5; format: cell-based; details: n=3, pulse 26, read-out: inhibition of Nav1.5 currents
# Description: (§8) The parameters measured were the maximum inward current evoked on stepping to −20 mV from the 1st and 26th pulse. Human Kv4.3/KChIP2 currents were evoked from a holding potential of −80 mV by a series of four 500 msec pulses to 0 mV using a 1000 msec interval between pulses. The parameter measured was the amplitude of the outward current 50 msec after the onset of the 4th voltage step to 0 mV. Human Cav1.2 currents were evoked by 2 pulses to −10 mV from a holding potential of −100 mV. The parameters measured were the maximum inward currents evoked on stepping to −10 mV from the holding potential of −100 mV for the 1st and 2nd pulse. Human Kv1.5 currents were evoked by a single pulse from a holding potential of −80 mV to a potential of 0 mV for 4 sec before returning to −80 mV. The parameters measured were the maximum amplitude of outward currents evoked at the beginning of the voltage pulse and at the end of the voltage step from −80 mV to 0 mV. Human KCNQ1/minK currents were evoked by a single pulse delivered from a holding potential of −80 mV to +60 mV for 4 sec before returning to −80 mV. The parameter measured was the maximum outward current evoked on stepping to +60 mV from the holding potential of −80 mV. hERG currents were evoked by a three-pulse protocol where voltage was first stepped to +40 mV for two sec from a holding potential of −80 mV to inactivate hERG channels. […]
# Cav1.2 = Cav1.2 (Homo sapiens, UniProt Q13936); test: Ion channel screening, Cav1.2; format: cell-based; details: n=34, pulse 2, read-out: inhibition of Cav1.2 currents
# Description: as §8
# Human HCN4 = Human HCN4 (Homo sapiens, UniProt Q9Y3Q4); test: Ion channel screening, HCN4; format: cell-based; details: n=16, read-out: inhibition of HCN4 currents
# [3] = Toxicity in beagle dogs, IV infusion for 36 d; format: in vivo; details: beagle, dog, in vivo, iv, dogs; for AUC(0-t): read-out: AUC0-24
# Description: (§4) Eighteen male and female (5-6 mo old) purebred beagle dogs (Cumberland, Va.) were acclimated for 47 d (20 to 26° C., relative humidity 30-70%, 10 or greater air changes/h, and a 12-h light/dark cycle) prior to study initiation. Animals were given water ad libitum and Certified Canine Diet #5007 (PMI Nutrition International Certified LabDiet®) for 4 to 5 h each day. At study initiation, animal body weights ranged from 8.6 to 11.5 kg for males and 6.0 to 9.4 kg for females. At least 1 week prior to initiation of dosing, animals were fasted overnight, anesthetized, and a catheter attached to a subcutaneous vascular access port was surgically implanted into a jugular vein. Animals were acclimated to infusion jackets prior to catheter implantation surgery. Animals were infused with sterile saline at a dose rate of 5 mL/h when the vascular access ports were accessed and when animals were connected to the infusion system (except when dosed with the test or vehicle control article). The patency of each catheter was checked as needed. Prednisolone tablets were administered orally at 2 mg/kg the night prior to dosing. Diphenhydramine (5 mg/kg; IM injection 0.1 mL/kg, 50 mg/mL) was administered prior to dosing and post the start of infusion (d 1 only). Male and female dogs received dose levels of Gamitrinib of 1.25, 3.33 and 6.25 mg/kg/dose formulated as indicated above during a 1 h infusion on d 1, 8, 11, 15, 18, 22, 25, 29, 32, and 36 at a volume of 2 mL/kg. The vehicle control was as above. […] Dosing was stopped, and 23 of 24 animals were administered additional diphenhydramine, 11 were administered Flunixin meglumine and buprenorphine, and 6 were administered acepromazine. Symptoms subsided in all animals after completion of these interventions. As a result of these observations, the polysorbate levels, which were increased from 0.025% (w/v) to 0.125% (w/v) to minimize precipitation, were returned to the original concentrations; 2 mg/kg prednisone was administered orally the night prior to dosing; and the diphenhydramine pretreatment dose was updated to 5 mg/kg 15 to 30 min prior to dosing. Detailed observations were conducted for each animal up to seven times during the predose phase, prior to dosing on d 1, 8, 15, 22, 29, and 36 of the dosing phase, and on d 1, 7, and 14 of the recovery phase. Blood samples (1 mL) were collected via the cephalic vein 5, 15, and 30 min and 1, 4, 8, and 24 h post the end of infusion on d 8 and 36 of the dosing phase. Formalin-fixed and paraffin-embedded tissue samples collected at the end of the study (d 39) were processed for histologic examination.
# beagle dogs = test: Toxicity in beagle dogs, IV infusion for 36 d; format: in vivo
# Description: as §4
# tumor cells = details: in culture; read-out: IC50 tumor cell killing; cited from earlier work
# [4] = 3.33 mg/kg/dose (NOAEL), d 36 of dosing, both sexes
# [5] = 6.25 mg/kg/dose (HNSTD), d 36, both sexes
# Sequence of CYP2A6 (P11509 whole entry): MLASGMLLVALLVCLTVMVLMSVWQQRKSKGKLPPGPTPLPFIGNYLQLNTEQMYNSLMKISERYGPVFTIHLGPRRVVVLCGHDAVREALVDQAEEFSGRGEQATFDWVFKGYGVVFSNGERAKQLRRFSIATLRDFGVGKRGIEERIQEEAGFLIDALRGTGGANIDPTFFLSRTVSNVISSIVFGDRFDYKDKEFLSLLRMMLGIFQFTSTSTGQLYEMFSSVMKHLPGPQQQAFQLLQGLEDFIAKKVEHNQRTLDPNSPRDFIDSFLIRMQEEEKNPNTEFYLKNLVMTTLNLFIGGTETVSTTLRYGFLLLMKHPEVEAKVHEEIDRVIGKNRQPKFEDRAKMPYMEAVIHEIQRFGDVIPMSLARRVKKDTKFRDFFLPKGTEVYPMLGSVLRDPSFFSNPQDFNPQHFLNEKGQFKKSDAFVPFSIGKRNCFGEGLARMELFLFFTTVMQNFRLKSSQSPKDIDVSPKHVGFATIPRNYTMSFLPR
# Sequence of Cav1.2 (Q13936 whole entry): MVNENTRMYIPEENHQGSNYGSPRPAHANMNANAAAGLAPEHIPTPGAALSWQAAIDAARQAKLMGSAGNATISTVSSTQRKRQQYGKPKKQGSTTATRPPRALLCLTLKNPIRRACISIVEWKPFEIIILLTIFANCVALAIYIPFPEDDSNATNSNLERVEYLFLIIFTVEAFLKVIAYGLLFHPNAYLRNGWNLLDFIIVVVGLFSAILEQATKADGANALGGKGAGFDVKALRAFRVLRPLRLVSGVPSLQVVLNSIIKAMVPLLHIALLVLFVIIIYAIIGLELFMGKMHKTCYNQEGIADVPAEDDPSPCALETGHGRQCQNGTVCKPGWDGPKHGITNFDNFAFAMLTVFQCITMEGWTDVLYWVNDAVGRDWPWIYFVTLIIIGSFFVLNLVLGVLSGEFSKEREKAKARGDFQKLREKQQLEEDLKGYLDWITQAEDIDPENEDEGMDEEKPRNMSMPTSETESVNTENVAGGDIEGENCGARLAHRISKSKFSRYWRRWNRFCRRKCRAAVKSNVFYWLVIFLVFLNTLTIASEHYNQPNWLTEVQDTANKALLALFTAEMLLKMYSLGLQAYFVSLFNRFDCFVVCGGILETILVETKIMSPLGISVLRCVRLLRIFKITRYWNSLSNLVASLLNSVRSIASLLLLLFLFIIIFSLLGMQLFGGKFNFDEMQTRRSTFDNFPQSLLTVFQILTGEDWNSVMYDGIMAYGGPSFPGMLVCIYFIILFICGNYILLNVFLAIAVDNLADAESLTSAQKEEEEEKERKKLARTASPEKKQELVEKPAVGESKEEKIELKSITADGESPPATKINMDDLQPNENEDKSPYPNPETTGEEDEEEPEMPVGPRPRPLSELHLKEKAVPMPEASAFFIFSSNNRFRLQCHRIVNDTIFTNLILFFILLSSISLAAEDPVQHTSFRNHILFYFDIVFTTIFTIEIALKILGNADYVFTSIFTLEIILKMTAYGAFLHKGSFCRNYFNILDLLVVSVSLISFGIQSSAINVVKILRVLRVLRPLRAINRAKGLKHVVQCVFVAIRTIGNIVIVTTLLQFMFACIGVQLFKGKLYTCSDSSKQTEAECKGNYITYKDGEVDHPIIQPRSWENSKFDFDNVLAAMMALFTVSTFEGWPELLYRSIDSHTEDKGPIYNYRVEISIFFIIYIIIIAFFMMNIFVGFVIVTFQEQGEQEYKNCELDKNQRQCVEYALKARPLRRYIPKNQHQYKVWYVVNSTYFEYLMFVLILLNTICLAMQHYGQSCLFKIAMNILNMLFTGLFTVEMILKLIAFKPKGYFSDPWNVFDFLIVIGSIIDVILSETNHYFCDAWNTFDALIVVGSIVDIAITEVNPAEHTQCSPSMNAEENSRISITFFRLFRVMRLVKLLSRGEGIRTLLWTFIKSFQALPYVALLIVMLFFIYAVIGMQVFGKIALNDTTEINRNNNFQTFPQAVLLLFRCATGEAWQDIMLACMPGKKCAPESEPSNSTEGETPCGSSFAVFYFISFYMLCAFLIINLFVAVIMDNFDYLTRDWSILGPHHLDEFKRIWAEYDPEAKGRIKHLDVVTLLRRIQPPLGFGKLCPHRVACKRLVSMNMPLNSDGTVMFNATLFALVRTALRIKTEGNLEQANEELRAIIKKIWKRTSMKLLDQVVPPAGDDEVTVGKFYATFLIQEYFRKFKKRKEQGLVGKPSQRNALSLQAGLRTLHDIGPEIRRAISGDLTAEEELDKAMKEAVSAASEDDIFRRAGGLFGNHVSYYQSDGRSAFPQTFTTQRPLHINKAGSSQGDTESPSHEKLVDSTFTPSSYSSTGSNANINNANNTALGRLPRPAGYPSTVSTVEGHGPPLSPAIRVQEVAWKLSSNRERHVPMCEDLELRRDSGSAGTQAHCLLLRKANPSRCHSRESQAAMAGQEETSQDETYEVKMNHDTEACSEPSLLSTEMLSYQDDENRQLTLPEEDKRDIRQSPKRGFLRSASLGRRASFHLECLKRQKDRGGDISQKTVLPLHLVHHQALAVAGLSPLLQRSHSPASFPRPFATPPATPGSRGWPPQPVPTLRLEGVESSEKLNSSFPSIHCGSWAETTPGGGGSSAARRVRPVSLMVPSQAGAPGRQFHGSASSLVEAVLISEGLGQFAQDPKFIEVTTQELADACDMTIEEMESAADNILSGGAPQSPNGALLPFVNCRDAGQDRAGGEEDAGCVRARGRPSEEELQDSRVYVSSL
# Sequence of Cav1.2 (Q08289 whole entry partner): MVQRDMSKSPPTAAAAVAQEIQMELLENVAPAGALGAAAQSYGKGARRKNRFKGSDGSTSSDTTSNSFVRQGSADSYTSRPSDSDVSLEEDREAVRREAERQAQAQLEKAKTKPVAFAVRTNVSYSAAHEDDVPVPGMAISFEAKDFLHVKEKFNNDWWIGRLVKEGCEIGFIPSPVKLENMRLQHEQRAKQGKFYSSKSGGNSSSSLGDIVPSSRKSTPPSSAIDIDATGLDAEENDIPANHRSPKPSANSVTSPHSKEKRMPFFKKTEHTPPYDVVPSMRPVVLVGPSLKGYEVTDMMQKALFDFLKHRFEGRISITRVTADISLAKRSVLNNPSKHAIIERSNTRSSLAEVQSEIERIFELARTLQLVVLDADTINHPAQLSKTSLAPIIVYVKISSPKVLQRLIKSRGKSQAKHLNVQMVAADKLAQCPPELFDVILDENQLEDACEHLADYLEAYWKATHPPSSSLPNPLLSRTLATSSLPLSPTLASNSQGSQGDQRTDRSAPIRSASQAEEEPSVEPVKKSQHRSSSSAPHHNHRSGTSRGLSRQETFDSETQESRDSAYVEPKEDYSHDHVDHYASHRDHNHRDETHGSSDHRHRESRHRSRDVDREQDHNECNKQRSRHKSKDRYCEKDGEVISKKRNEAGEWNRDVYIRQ
# Sequence of Cav1.2 (P54289 25-956 partner limits assumed): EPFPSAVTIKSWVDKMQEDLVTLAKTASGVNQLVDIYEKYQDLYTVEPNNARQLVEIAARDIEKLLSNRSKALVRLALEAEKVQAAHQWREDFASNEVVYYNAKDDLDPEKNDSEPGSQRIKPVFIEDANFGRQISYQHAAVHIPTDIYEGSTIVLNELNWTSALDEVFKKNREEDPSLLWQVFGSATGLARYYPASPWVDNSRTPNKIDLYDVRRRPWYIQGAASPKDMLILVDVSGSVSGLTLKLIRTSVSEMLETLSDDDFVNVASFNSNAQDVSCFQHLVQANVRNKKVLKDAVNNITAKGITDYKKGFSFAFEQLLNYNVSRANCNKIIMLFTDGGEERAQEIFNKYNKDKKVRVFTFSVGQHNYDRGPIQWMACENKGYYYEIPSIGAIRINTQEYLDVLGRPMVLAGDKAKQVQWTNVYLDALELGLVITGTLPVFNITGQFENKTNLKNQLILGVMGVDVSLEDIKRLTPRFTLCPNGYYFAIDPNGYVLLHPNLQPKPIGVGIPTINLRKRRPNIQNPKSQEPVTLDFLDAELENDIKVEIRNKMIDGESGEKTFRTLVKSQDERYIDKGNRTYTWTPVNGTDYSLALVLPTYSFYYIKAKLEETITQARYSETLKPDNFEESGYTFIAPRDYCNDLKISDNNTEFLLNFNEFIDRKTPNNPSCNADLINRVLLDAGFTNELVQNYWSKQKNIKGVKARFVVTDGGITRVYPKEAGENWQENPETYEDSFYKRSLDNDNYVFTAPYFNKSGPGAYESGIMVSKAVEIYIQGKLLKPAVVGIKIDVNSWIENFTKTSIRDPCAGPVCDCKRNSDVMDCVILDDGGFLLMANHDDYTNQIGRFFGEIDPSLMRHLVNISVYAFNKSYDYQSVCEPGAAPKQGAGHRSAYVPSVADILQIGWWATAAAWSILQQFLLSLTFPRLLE
# Sequence of Cav1.2 (P54289 957-1103 partner limits assumed): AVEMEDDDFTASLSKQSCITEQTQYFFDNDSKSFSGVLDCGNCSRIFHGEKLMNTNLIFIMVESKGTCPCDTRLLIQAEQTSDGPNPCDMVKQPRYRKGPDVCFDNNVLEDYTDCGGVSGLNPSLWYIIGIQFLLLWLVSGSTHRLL
# Sequence of CYP3A4 (P08684 whole entry): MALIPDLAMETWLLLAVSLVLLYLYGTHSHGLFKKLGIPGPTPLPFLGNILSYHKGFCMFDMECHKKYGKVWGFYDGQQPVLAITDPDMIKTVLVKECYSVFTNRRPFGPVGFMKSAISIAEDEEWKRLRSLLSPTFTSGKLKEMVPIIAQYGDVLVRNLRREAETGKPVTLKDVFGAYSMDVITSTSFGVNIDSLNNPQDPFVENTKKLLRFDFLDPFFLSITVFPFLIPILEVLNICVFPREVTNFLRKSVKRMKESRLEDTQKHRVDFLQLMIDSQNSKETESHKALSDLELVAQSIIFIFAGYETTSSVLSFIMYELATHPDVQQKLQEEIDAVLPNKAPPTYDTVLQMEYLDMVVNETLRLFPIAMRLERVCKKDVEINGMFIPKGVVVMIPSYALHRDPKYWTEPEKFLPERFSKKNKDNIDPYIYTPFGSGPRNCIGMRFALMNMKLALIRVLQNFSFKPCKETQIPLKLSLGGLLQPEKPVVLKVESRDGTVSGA
smiles,measurement,setting,value
"CO[C@H]1/C=C\C=C(/C)C(=O)NC2=CC(=O)C(NCCCCCC[P+](c3ccccc3)(c3ccccc3)c3ccccc3)=C(C[C@@H](C)C[C@H](OC)[C@H](O)[C@@H](C)/C=C(\C)[C@@H]1OC(N)=O)C2=O [Gamitrinib, 17-Demethoxy-17-((6-(triphenylphosphonio)hexyl)amino)geldanamycin]","fraction unbound at 4 h, 2 μg/mL",[1]; read-out: average free fraction,0.007 ± 0.0007
same,"fraction unbound at 4 h, 2 μg/mL",[1]; read-out: bound to plasma proteins,< 0.01
same,bound to plasma proteins,plasma proteins,99.3±0.07%
same,Papp B→A at 90 min,in vitro; Caco-2,10.9 nm/s
same,efflux ratio at 90 min,"in vitro; Caco-2, Papp Efflux Ratio (ER)",5.77
same,Papp A→B at 90 min,"in vitro; Caco-2, Papp",1.9 nm/s
same,efflux ratio at 90 min,"in vitro; Caco-2, Pexact Efflux Ratio",5.54
same,Papp A→B at 90 min,"in vitro; Caco-2, Pexact",1.97 nm/s
same,"Pexact, B > A",[2],10.92 nm/s
same,IC50,CYP2A6,24 µM
same,IC50,CYP3A4,0.12 to 0.2 µM
same,inhibition at 10 µM,Nav1.5,22.3 ± 5.3%
same,inhibition at 10 µM,Cav1.2,12.2 ± 1.5%
same,inhibition at 10 µM,Human HCN4,-0.2 ± 3.7%
same,Cmax,[3]; [4],0.56 ± 0.404 µg/mL
same,AUC(0-t),[3]; [4],1.74 ± 0.713 µg·h/mL
same,Cmax,[3]; [5],1.26 ± 0.556 µg/mL
same,AUC(0-t),[3]; [5],3.29 ± 1.09 µg·h/mL
same,NOAEL,"beagle dogs; beagle dogs, IV for 36 d",3.33 mg/kg/dose
same,highest non-severely toxic dose (HNSTD),"beagle dogs; beagle dogs, IV for 36 d",6.25 mg/kg/dose
same,Bone marrow and liver parameters,"beagle dogs; dog, in vivo",unremarkable
same,changes in organ weights,"beagle dogs; dog, in vivo",No Gamitrinib-related changes
same,serum urea nitrogen and creatinine,"beagle dogs; dogs (both sexes), 6.25 mg/kg/dose, 6.25 mg/kg",trend of increased serum urea nitrogen and creatinine; also recorded: modest elevation of urea nitrogen and creatinine concentrations
same,kidney microscopic finding,"beagle dogs; dogs, 6.25 mg/kg/dose, reversible during recovery",slight to moderate kidney tubular degeneration/regeneration
same,alterations in body weight or other clinical observations,"beagle dogs; dogs, 1.25, 3.33 and 6.25 mg/kg/dose",no alterations
same,Body weight,"beagle dogs; female dogs, 3.33 mg/kg, day 1",7.6 ± 0.9 kg
same,Body weight,"beagle dogs; female dogs, 3.33 mg/kg, day 8",7.6 ± 0.9 kg
same,Body weight,"beagle dogs; female dogs, 3.33 mg/kg, day 15",7.6 ± 1.06 kg
same,Body weight,"beagle dogs; female dogs, 3.33 mg/kg, day 22",7.5 ± 0.75 kg
same,Body weight,"beagle dogs; female dogs, 3.33 mg/kg, day 29",7.6 ± 0.7 kg
same,Body weight,"beagle dogs; female dogs, 3.33 mg/kg, day 36",7.5 ± 0.8 kg
same,Body weight,"beagle dogs; female dogs, 6.25 mg/kg, day 1",7.7 ± 0.57 kg
same,Body weight,"beagle dogs; female dogs, 6.25 mg/kg, day 8",7.7 ± 0.62 kg
same,Body weight,"beagle dogs; female dogs, 6.25 mg/kg, day 15",7.4 ± 0.54 kg
same,Body weight,"beagle dogs; female dogs, 6.25 mg/kg, day 22",7.2 ± 0.6 kg
same,Body weight,"beagle dogs; female dogs, 6.25 mg/kg, day 29",7.3 ± 0.58 kg
same,Body weight,"beagle dogs; female dogs, 6.25 mg/kg, day 36",7.3 ± 0.59 kg
same,Body weight,"beagle dogs; male dogs, 3.33 mg/kg, day 1",10.1 ± 1.1 kg
same,Body weight,"beagle dogs; male dogs, 3.33 mg/kg, day 8",10 ± 1.04 kg
same,Body weight,"beagle dogs; male dogs, 3.33 mg/kg, day 15",9.9 ± 1.15 kg
same,Body weight,"beagle dogs; male dogs, 3.33 mg/kg, day 22",10.2 ± 1.21 kg
same,Body weight,"beagle dogs; male dogs, 3.33 mg/kg, day 29",10.1 ± 1.21 kg
same,Body weight,"beagle dogs; male dogs, 3.33 mg/kg, day 36",10 ± 1.36 kg
same,Body weight,"beagle dogs; male dogs, 6.25 mg/kg, day 1",9.9 ± 0.83 kg
same,Body weight,"beagle dogs; male dogs, 6.25 mg/kg, day 8",9.8 ± 0.85 kg
same,Body weight,"beagle dogs; male dogs, 6.25 mg/kg, day 15",9.5 ± 0.57 kg
same,Body weight,"beagle dogs; male dogs, 6.25 mg/kg, day 22",9.2 ± 0.57 kg
same,Body weight,"beagle dogs; male dogs, 6.25 mg/kg, day 29",9.2 ± 0.46 kg
same,Body weight,"beagle dogs; male dogs, 6.25 mg/kg, day 36",9.1 ± 0.58 kg
same,IC50,tumor cells,1 to 4 µM
